Results: patent US9452986B2, “6-heteroaryloxy- or 6-aryloxy-quinoline-2-carboxamides and method of use” (AbbVie Inc., priority 2014, dated 2016)

Molecular target: recombinant human Nav1.7 (Homo sapiens (Human), UniProt Q15858)
Test: FRET-based membrane potential assay, recombinant human sodium channel Nav1.7
Type: cell-based
Details: HEK293 cells stably expressing recombinant human Nav1.7; veratridine + scorpion venom depolarization; read-out: FRET-Membrane Potential Nav1.7 IC50
Method: FRET-Based Membrane Potential Assays.
Recombinant, Human Sodium Channel, Nav1.7.
On the day of the assay, medium was removed by aspiration, and cells were washed with assay buffer [HBSS (Invitrogen, Carlsbad, Calif.) containing 20 mM HEPES (Invitrogen, Carlsbad, Calif.)]. […] Cells were incubated for 40 minutes at room temperature in the dark. […] The cells were incubated for 90 minutes at room temperature in the dark. Fluorescence readings were made using a FLIPR®^TETRA (Molecular Devices, Sunnyvale Calif.) equipped with voltage-sensor probe optics. At the start of each experiment the optimal (EC80) concentration of depolarizing agent (veratridine) was determined by testing a dilution curve of assay buffer containing veratridine (Sigma-Aldrich, St. Louis, Mo.) and 1 mg/mL scorpion venom (SVqq, from Leiurus quinquestriatus; Sigma-Aldrich, St. Louis, Mo.). […] Test compounds in the daughter plate were diluted to (˜3×) solutions in assay buffer immediately before assaying. Using the FLIPR®^TETRA, 20 μL of the (3×) compound solutions were first added to the cells, then 20 μL of depolarizing solution (3×EC80 veratridine+SVqq) were added 3 minutes later to activate the channel. […] IC50 values were calculated from curve fits of the ratio data using a four-parameter logistic Hill equation (Accelrys Assay Explorer 3.3 Client, Accelrys, San Diego, Calif.) with percent inhibition plotted against compound concentration.

Sequence of recombinant human Nav1.7 (Q15858 whole entry): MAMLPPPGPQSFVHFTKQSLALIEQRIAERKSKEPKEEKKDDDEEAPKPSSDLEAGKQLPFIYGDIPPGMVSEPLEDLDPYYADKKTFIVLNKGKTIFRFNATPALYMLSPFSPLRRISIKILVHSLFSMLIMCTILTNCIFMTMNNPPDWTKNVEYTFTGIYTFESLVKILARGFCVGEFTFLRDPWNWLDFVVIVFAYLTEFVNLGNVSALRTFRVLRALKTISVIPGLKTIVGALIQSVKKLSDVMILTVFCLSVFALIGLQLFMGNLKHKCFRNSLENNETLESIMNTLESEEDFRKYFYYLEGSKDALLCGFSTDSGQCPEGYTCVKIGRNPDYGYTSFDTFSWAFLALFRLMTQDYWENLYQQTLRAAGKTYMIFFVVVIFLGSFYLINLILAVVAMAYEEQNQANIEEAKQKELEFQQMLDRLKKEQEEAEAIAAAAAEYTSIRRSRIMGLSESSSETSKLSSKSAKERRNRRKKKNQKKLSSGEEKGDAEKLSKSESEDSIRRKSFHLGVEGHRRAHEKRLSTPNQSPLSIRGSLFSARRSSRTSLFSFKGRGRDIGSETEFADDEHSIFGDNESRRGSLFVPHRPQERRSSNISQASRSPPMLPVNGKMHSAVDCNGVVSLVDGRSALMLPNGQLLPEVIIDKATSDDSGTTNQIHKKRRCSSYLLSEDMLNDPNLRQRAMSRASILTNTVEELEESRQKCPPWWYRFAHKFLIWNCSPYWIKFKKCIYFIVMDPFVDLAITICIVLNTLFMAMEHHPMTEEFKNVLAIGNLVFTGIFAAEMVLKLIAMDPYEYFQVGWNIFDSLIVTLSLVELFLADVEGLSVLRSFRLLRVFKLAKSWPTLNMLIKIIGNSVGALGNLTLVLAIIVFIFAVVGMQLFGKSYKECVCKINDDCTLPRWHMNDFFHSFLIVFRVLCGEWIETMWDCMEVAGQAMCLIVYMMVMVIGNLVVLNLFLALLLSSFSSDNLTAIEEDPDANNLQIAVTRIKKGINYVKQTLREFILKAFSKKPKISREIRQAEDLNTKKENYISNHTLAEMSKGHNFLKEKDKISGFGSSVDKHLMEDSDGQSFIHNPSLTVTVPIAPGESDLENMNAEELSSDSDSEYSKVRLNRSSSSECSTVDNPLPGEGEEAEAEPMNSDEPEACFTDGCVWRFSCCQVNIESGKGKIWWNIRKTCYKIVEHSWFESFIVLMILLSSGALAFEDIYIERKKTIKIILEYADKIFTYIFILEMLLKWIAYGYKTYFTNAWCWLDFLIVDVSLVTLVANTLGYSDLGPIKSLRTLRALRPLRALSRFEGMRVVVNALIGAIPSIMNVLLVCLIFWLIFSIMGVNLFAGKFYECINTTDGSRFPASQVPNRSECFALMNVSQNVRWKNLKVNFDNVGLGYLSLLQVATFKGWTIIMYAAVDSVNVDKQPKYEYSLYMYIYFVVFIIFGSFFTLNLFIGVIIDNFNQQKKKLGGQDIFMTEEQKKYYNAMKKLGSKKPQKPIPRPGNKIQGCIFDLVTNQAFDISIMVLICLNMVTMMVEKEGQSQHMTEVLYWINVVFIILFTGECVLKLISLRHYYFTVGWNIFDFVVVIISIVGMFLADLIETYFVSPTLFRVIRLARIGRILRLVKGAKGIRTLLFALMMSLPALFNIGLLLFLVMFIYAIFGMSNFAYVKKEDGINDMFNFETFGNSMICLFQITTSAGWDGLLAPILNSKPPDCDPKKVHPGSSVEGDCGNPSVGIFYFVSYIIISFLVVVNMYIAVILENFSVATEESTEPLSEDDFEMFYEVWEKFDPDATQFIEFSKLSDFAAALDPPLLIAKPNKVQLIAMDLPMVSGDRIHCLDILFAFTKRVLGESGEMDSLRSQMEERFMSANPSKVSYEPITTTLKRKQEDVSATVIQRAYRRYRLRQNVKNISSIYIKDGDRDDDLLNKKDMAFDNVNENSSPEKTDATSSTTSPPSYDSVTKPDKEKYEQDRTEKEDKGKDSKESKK

| Compound | IC50 [µM] |
| --- | --- |
| N#Cc1ccc(Oc2ccc3nc(C(=O)N[C@H]4CCC[C@H](O)C4)ccc3c2)cc1 [Example 132, 6-(4-cyanophenoxy)-N-[(1S,3S)-3-hydroxycyclohexyl]quinoline-2-carboxamide] | 2.7 |
| N#Cc1ccc(Oc2ccc3nc(C(=O)N[C@H]4CC[C@@H](O)CC4)ccc3c2)cc1 [Example 133, 6-(4-cyanophenoxy)-N-(cis-4-hydroxycyclohexyl)quinoline-2-carboxamide] | 1.17 |
| N#Cc1ccc(Oc2ccc3nc(C(=O)N4CCNC(=O)C4)ccc3c2)cc1 [Example 137, 4-({2-[(3-oxopiperazin-1-yl)carbonyl]quinolin-6-yl}oxy)benzonitrile] | 8.24 |
| N#Cc1ccc(Oc2ccc3nc(C(=O)N4CCC(N5CCOCC5)CC4)ccc3c2)cc1 [Example 138, 4-[(2-{[4-(morpholin-4-yl)piperidin-1-yl]carbonyl}quinolin-6-yl)oxy]benzonitrile] | 2.47 |
| N#Cc1ccc(Oc2ccc3nc(C(=O)N[C@@H]4CCOc5ccc(F)cc54)ccc3c2)cc1 [Example 139, 6-(4-cyanophenoxy)-N-[(4R)-6-fluoro-3,4-dihydro-2H-chromen-4-yl]quinoline-2-carboxamide] | > 20 |
| CC(C)(C)N1CCN(C(=O)c2ccc3cc(Oc4ccc(C#N)cc4)ccc3n2)CC1 [Example 140, 4-({2-[(4-tert-butylpiperazin-1-yl)carbonyl]quinolin-6-yl}oxy)benzonitrile] | 0.559 |
| CC1(C)C[C@@H](NC(=O)c2ccc3cc(Oc4ccc(C#N)cc4)ccc3n2)c2cc(F)ccc2O1 [Example 141, 6-(4-cyanophenoxy)-N-[(4R)-6-fluoro-2,2-dimethyl-3,4-dihydro-2H-chromen-4-yl]quinoline-2-carboxamide] | > 20 |
| CC(C)[C@H]1CN(C(=O)c2ccc3cc(Oc4ccc(C#N)cc4)ccc3n2)CCN1 [Example 142, 4-[(2-{[(3S)-3-isopropylpiperazin-1-yl]carbonyl}quinolin-6-yl)oxy]benzonitrile] | 0.766 |
| CN1CCC(NC(=O)c2ccc3cc(Oc4ccc(C#N)cc4)ccc3n2)C1=O (centres unmarked) [Example 143, 6-(4-cyanophenoxy)-N-(1-methyl-2-oxopyrrolidin-3-yl)quinoline-2-carboxamide] | 1.08 |
| N#Cc1ccc(Oc2ccc3nc(C(=O)NCc4ncco4)ccc3c2)cc1 [Example 144, 6-(4-cyanophenoxy)-N-(1,3-oxazol-2-ylmethyl)quinoline-2-carboxamide] | 0.832 |
| CNC(=O)CNC(=O)c1ccc2cc(Oc3ccc(C#N)cc3)ccc2n1 [Example 145, 6-(4-cyanophenoxy)-N-[2-(methylamino)-2-oxoethyl]quinoline-2-carboxamide] | 3.09 |
| N#Cc1ccc(Oc2ccc3nc(C(=O)NCC(N)=O)ccc3c2)cc1 [Example 146, N-(2-amino-2-oxoethyl)-6-(4-cyanophenoxy)quinoline-2-carboxamide] | 8.03 |
| N#Cc1ccc(Oc2ccc3nc(C(=O)NCCS(N)(=O)=O)ccc3c2)cc1 [Example 147, 6-(4-cyanophenoxy)-N-(2-sulfamoylethyl)quinoline-2-carboxamide] | 4.28 |
| N#Cc1ccc(Oc2ccc3nc(C(=O)N4CCS(=O)(=O)CC4)ccc3c2)cc1 [Example 148, 4-({2[(1,1-dioxidothiomorpholin-4-yl)carbonyl]quinolin-6-yl}oxy)benzonitrile] | 12.1 |
| NC(=O)CNC(=O)c1ccc2cc(Oc3ccc(C(F)(F)F)cn3)ccc2n1 [Example 150, N-(2-amino-2-oxoethyl)-6-{[5-(trifluoromethyl)pyridin-2-yl]oxy}quinoline-2-carboxamide] | 2.28 |
| O=C(NCc1ccccn1)c1ccc2cc(Oc3ccc(C(F)(F)F)cn3)ccc2n1 [Example 151, N-(pyridin-2-ylmethyl)-6-{[5-(trifluoromethyl)pyridin-2-yl]oxy}quinoline-2-carboxamide] | 0.792 |
| O=C(NC1CCS(=O)(=O)C1)c1ccc2cc(Oc3ncc(C(F)(F)F)cc3Cl)ccc2n1 (centres unmarked) [Example 154, 6-{[3-chloro-5-(trifluoromethyl)pyridin-2-yl]oxy}-N-(1,1-dioxidotetrahydrothiophen-3-yl)quinoline-2-carboxamide] | 2.32 |
| O=C(c1ccc2cc(Oc3ccc(C(F)(F)F)cn3)ccc2n1)N1CC2(CNC2)C1 [Example 157, 2,6-diazaspiro[3.3]hept-2-yl(6-{[5-(trifluoromethyl)pyridin-2-yl]oxy}quinolin-2-yl)methanone] | > 20 |
| N#Cc1ccc(Oc2ccc3nc(C(=O)NC4CCS(=O)(=O)C4)ccc3c2)nc1 (centres unmarked) [Example 158, 6-[(5-cyanopyridin-2-yl)oxy]-N-(1,1-dioxidotetrahydrothiophen-3-yl)quinoline-2-carboxamide] | > 20 |
| Cc1cc(C)nc(Oc2ccc3nc(C(=O)NC4CCS(=O)(=O)C4)ccc3c2)n1 (centres unmarked) [Example 162, 6-[(4,6-dimethylpyrimidin-2-yl)oxy]-N-(1,1-dioxidotetrahydrothiophen-3-yl)quinoline-2-carboxamide] | > 20 |

Same assay, conditions: read-out: FRET-Membrane Potential Nav1.7 IC50

| Compound | IC50 [µM] |
| --- | --- |
| CC(O)C(C)NC(=O)c1ccc2cc(Oc3ccc(C#N)cc3)ccc2n1 (centres unmarked) [Example 134, 6-(4-cyanophenoxy)-N-(3-hydroxybutan-2-yl)quinoline-2-carboxamide] | 2.32 |
| CC(C)C(O)CNC(=O)c1ccc2cc(Oc3ccc(C#N)cc3)ccc2n1 (centres unmarked) [Example 135, 6-(4-cyanophenoxy)-N-(2-hydroxy-3-methylbutyl)quinoline-2-carboxamide] | 0.688 |
| N#Cc1ccc(Oc2ccc3nc(C(=O)NC4CCS(=O)(=O)C4)ccc3c2)cc1 (centres unmarked) [Example 136, 6-(4-cyanophenoxy)-N-(1,1-dioxidotetrahydrothiophen-3-yl)quinoline-2-carboxamide] | 0.533 |
| O=C(c1ccc2cc(Oc3cccc(C(F)(F)F)n3)ccc2n1)N1CCNCC1 [Example 153, piperazin-1-yl(6-{[6-(trifluoromethyl)pyridin-2-yl]oxy}quinolin-2-yl)methanone] | 3.3 |
| O=C(NC1CCS(=O)(=O)C1)c1ccc2cc(Oc3ncc(C(F)(F)F)cn3)ccc2n1 (centres unmarked) [Example 155, N-(1,1-dioxidotetrahydrothiophen-3-yl)-6-{[5-(trifluoromethyl)pyrimidin-2-yl]oxy}quinoline-2-carboxamide] | 5.38 |
| O=C(c1ccc2cc(Oc3ccc(C(F)(F)F)cn3)ccc2n1)N1CC2(COC2)C1 [Example 156, 2-oxa-6-azaspiro[3.3]hept-6-yl(6-{[5-(trifluoromethyl)pyridin-2-yl]oxy}quinolin-2-yl)methanone] | > 20 |
| N#Cc1ccc(Oc2ccc3nc(C(=O)N[C@H]4CCS(=O)(=O)C4)ccc3c2)cc1 [Example 159, 6-(4-cyanophenoxy)-N-[(3S)-1,1-dioxidotetrahydrothiophen-3-yl]quinoline-2-carboxamide] | 0.73 |
| N#Cc1ccc(Oc2ccc3nc(C(=O)N[C@@H]4CCS(=O)(=O)C4)ccc3c2)cc1 [Example 160, 6-(4-cyanophenoxy)-N-[(3R)-1,1-dioxidotetrahydrothiophen-3-yl]quinoline-2-carboxamide] | 0.71 |
| Cc1cnc(Oc2ccc3nc(C(=O)NC4CCS(=O)(=O)C4)ccc3c2)nc1 (centres unmarked) [Example 161, N-(1,1-dioxidotetrahydrothiophen-3-yl)-6-[(5-methylpyrimidin-2-yl)oxy]quinoline-2-carboxamide] | > 20 |
